Patent US12409156B2, “Stable aqueous hydroxycarbamide solution” (Nova Bio-Pharma Product Development LTD, priority 2018, dated 2025)

How the values were obtained:
[1] = test system: six organisms tested; test: Preservative efficacy study
Procedure: In parallel to this work, a preservative efficacy study was performed to investigate the effectiveness of the preservative system.

[2] = cited from earlier work
[3] = Rat toxicology studies; type: in vivo; conditions: compared with hydroxycarbamide (hydroxyurea)
Procedure: Importantly, the composition disclosed in U.S. Pat. No. 3,119,866 is only stable as a dry composition, after evaporation of all water. […] After this time unacceptable levels of degradation products are present in the aqueous solution. As a result, it has previously been considered that the use of pH buffers such as potassium citrate and citric acid/sodium citrate to stabilise solutions of hydroxycarbamide is not effective. At temperatures between 2° C. and 8° C., the applicant has discovered that the main degradation product of hydroxycarbamide solutions is carbamoyloxyurea. The International Conference on Harmonisation of Technical Requirements for Registration of Pharmaceuticals for Human Use (ICH) stipulates that the maximum allowable limit for any degradant in a formulation should not exceed 0.15% w/v, at therapeutic doses of hydroxycarbamide in the treatment of sickle cell disease. […] As a result, the European Medicines Agency has now accepted that carbamoyloxyurea contents of up to 0.5% w/v are acceptable.

SMILES	antimicrobial activity [1]	variation of exposure for a given dosing regime ([2]; adult patients)	differences in exposure at the same mg/kg dose ([2]; paediatric patients)	risk in rat toxicology studies [3]
NC(=O)NO [hydroxycarbamide, Hydroxycarbamide]	able to inhibit the growth of six organisms tested	approximately five-fold	two to three-fold	–
NC(=O)NOC(N)=O [carbamoyloxyurea]	–	–	–	does not pose a risk over and above hydroxycarbamide
